System: 2G12
Test: Binding curve and KD determination of 2G12-glycopeptide interaction (radiolabeled glycopeptide, protein G magnetic bead capture, scintillation counting)
Settings: for Fmax [%] / Kd: Table 4, error = standard error of fit; for Fmax [%]: maximal fraction bound from curve fit; for Kd: ribosomally translated radiolabeled glycopeptide with His6/FLAG tag, room temperature, fit Fbound=(Fmax[2G12])/(KD+[2G12])
How it was run: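 Radiolabeled glycopeptide (<4 pmol) from PURE-system translation with click glycosylation was incubated with 100 nM 2G12 at room temperature. Complexes were captured on protein G beads and eluted at 70° C. Bound and unbound fractions were counted by scintillation, run at least in triplicate, and KD derived from binding curves.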

Compound	tolerance of Cys substitutions for 2G12 binding (in words) (Cys to Ser mutants, Table 6)	Fmax [%]	Kd
CC[C@H](C)[C@H](NC(=O)[C@H](CCC(N)=O)NC(=O)[C@H](CCCCN)NC(=O)[C@H](CC(C)C)NC(=O)[C@H](Cc1c[nH]cn1)NC(=O)[C@H](CC(C)C)NC(=O)[C@@H](NC(=O)[C@H](CC(=O)O)NC(=O)[C@H](CCc1cn(C2CCC(OC3O[C@H](CO[C@H]4O[C@H](CO[C@H]5O[C@H](CO)[C@@H](O)[C@H](O)[C@@H]5O[C@H]5O[C@H](CO)[C@@H](O)[C@H](O)[C@@H]5O)[C@@H](O)[C@H](O[C@H]5O[C@H](CO)[C@@H](O)[C@H](O)[C@@H]5O[C@H]5O[C@H](CO)[C@@H](O)[C@H](O)[C@@H]5O)[C@@H]4O)[C@@H](O)[C@H](O[C@H]4O[C@H](CO)[C@@H](O)[C@H](O)[C@@H]4O[C@H]4O[C@H](CO)[C@@H](O)[C@H](O)[C@@H]4O[C@H]4O[C@H](CO)[C@@H](O)[C@H](O)[C@@H]4O)[C@@H]3O)CC2)nn1)NC=O)[C@@H](C)O)C(=O)NCC(=O)NCC(=O)N[C@@H](CCc1cn(C2CCC(OC3O[C@H](CO[C@H]4O[C@H](CO[C@H]5O[C@H](CO)[C@@H](O)[C@H](O)[C@@H]5O[C@H]5O[C@H](CO)[C@@H](O)[C@H](O)[C@@H]5O)[C@@H](O)[C@H](O[C@H]5O[C@H](CO)[C@@H](O)[C@H](O)[C@@H]5O[C@H]5O[C@H](CO)[C@@H](O)[C@H](O)[C@@H]5O)[C@@H]4O)[C@@H](O)[C@H](O[C@H]4O[C@H](CO)[C@@H](O)[C@H](O)[C@@H]4O[C@H]4O[C@H](CO)[C@@H](O)[C@H](O)[C@@H]4O[C@H]4O[C@H](CO)[C@@H](O)[C@H](O)[C@@H]4O)[C@@H]3O)CC2)nn1)C(=O)N1CCC[C@H]1C(=O)N[C@@H](CC(N)=O)C(=O)N[C@@H](CS)C(=O)N[C@H](C(=O)N[C@H](C(=O)N[C@@H](CCC(N)=O)C(=O)N[C@@H](CCC(N)=O)C(=O)N[C@@H](CC(=O)O)C(=O)N[C@H](C(=O)N[C@@H](CCCNC(=N)N)C(=O)N[C@@H](CCc1cn(C2CCC(OC3O[C@H](CO[C@H]4O[C@H](CO[C@H]5O[C@H](CO)[C@@H](O)[C@H](O)[C@@H]5O[C@H]5O[C@H](CO)[C@@H](O)[C@H](O)[C@@H]5O)[C@@H](O)[C@H](O[C@H]5O[C@H](CO)[C@@H](O)[C@H](O)[C@@H]5O[C@H]5O[C@H](CO)[C@@H](O)[C@H](O)[C@@H]5O)[C@@H]4O)[C@@H](O)[C@H](O[C@H]4O[C@H](CO)[C@@H](O)[C@H](O)[C@@H]4O[C@H]4O[C@H](CO)[C@@H](O)[C@H](O)[C@@H]4O[C@H]4O[C@H](CO)[C@@H](O)[C@H](O)[C@@H]4O)[C@@H]3O)CC2)nn1)C(=O)N[C@H](C(=O)N[C@@H](CO)C(=O)N[C@H](C(=O)N1CCC[C@H]1C(=O)N[C@@H](Cc1ccc(O)cc1)C(=O)N[C@H](C(=O)N[C@@H](Cc1ccc(O)cc1)C(=O)N[C@H](C(=O)N[C@@H](Cc1c[nH]c2ccccc12)C(=O)N1CCC[C@H]1C(=O)NCC(=O)N[C@@H](CO)C(=O)NCC(=O)N[C@@H](CO)C(=O)N[C@@H](CC(C)C)C(=O)NCC(=O)N[C@@H](Cc1c[nH]cn1)C(=O)N[C@@H](Cc1c[nH]cn1)C(=O)N[C@@H](Cc1c[nH]cn1)C(=O)N[C@@H](Cc1c[nH]cn1)C(=O)N[C@@H](Cc1c[nH]cn1)C(=O)N[C@@H](Cc1c[nH]cn1)C(=O)N[C@@H](CCCNC(=N)N)C(=O)N[C@@H](CC(=O)O)C(=O)N[C@@H](Cc1ccc(O)cc1)C(=O)N[C@@H](CCCCN)C(=O)N[C@@H](CC(=O)O)C(=O)N[C@@H](CC(=O)O)C(=O)N[C@@H](CC(=O)O)C(=O)N[C@@H](CC(=O)O)C(=O)N[C@@H](CCCCN)C(=O)O)[C@@H](C)O)[C@@H](C)O)[C@@H](C)CC)[C@@H](C)O)C(C)C)[C@@H](C)O)[C@@H](C)CC (stereo partly drawn) [Clone 10F3, XDTLHLKQIGGXPNCITQQDVRXTSIPYTYTWP]	tolerated	100 ± 2.7%	3 ± 0.31 nM
CC[C@H](C)[C@H](NC(=O)[C@H](CCC(=O)O)NC(=O)CNC(=O)[C@H](Cc1c[nH]c2ccccc12)NC(=O)[C@@H](NC(=O)[C@@H](NC(=O)[C@@H]1CCCN1C(=O)[C@H](CCc1cn(C2CCC(OC3O[C@H](CO[C@H]4O[C@H](CO[C@H]5O[C@H](CO)[C@@H](O)[C@H](O)[C@@H]5O[C@H]5O[C@H](CO)[C@@H](O)[C@H](O)[C@@H]5O)[C@@H](O)[C@H](O[C@H]5O[C@H](CO)[C@@H](O)[C@H](O)[C@@H]5O[C@H]5O[C@H](CO)[C@@H](O)[C@H](O)[C@@H]5O)[C@@H]4O)[C@@H](O)[C@H](O[C@H]4O[C@H](CO)[C@@H](O)[C@H](O)[C@@H]4O[C@H]4O[C@H](CO)[C@@H](O)[C@H](O)[C@@H]4O[C@H]4O[C@H](CO)[C@@H](O)[C@H](O)[C@@H]4O)[C@@H]3O)CC2)nn1)NC(=O)[C@H](CC(C)C)NC(=O)[C@H](Cc1ccc(O)cc1)NC(=O)[C@@H](NC(=O)[C@H](Cc1ccc(O)cc1)NC(=O)[C@@H](NC(=O)[C@@H]1CCCN1C(=O)[C@@H](NC(=O)[C@H](CO)NC(=O)[C@H](CC(C)C)NC(=O)[C@H](CCc1cn(C2CCC(OC3O[C@H](CO[C@H]4O[C@H](CO[C@H]5O[C@H](CO)[C@@H](O)[C@H](O)[C@@H]5O[C@H]5O[C@H](CO)[C@@H](O)[C@H](O)[C@@H]5O)[C@@H](O)[C@H](O[C@H]5O[C@H](CO)[C@@H](O)[C@H](O)[C@@H]5O[C@H]5O[C@H](CO)[C@@H](O)[C@H](O)[C@@H]5O)[C@@H]4O)[C@@H](O)[C@H](O[C@H]4O[C@H](CO)[C@@H](O)[C@H](O)[C@@H]4O[C@H]4O[C@H](CO)[C@@H](O)[C@H](O)[C@@H]4O[C@H]4O[C@H](CO)[C@@H](O)[C@H](O)[C@@H]4O)[C@@H]3O)CC2)nn1)NC(=O)[C@H](CCCNC(=N)N)NC(=O)[C@H](Cc1ccccc1)NC(=O)[C@@H]1CCCN1C(=O)[C@H](CC(N)=O)NC(=O)[C@@H](NC(=O)[C@H](CC(N)=O)NC(=O)[C@@H](NC(=O)[C@H](CO)NC(=O)[C@@H](NC(=O)[C@@H](NC(=O)[C@@H](NC(=O)[C@@H]1CCCN1C(=O)[C@H](CC(C)C)NC(=O)[C@@H](NC(=O)[C@H](CCc1cn(C2CCC(OC3O[C@H](CO[C@H]4O[C@H](CO[C@H]5O[C@H](CO)[C@@H](O)[C@H](O)[C@@H]5O[C@H]5O[C@H](CO)[C@@H](O)[C@H](O)[C@@H]5O)[C@@H](O)[C@H](O[C@H]5O[C@H](CO)[C@@H](O)[C@H](O)[C@@H]5O[C@H]5O[C@H](CO)[C@@H](O)[C@H](O)[C@@H]5O)[C@@H]4O)[C@@H](O)[C@H](O[C@H]4O[C@H](CO)[C@@H](O)[C@H](O)[C@@H]4O[C@H]4O[C@H](CO)[C@@H](O)[C@H](O)[C@@H]4O[C@H]4O[C@H](CO)[C@@H](O)[C@H](O)[C@@H]4O)[C@@H]3O)CC2)nn1)NC=O)C(C)C)[C@@H](C)O)[C@@H](C)CC)[C@@H](C)CC)[C@@H](C)O)C(C)C)[C@@H](C)CC)[C@@H](C)O)[C@@H](C)O)[C@@H](C)CC)[C@@H](C)O)C(=O)NCC(=O)N[C@@H](CO)C(=O)NCC(=O)N[C@@H](CO)C(=O)N[C@@H](CC(C)C)C(=O)NCC(=O)N[C@@H](Cc1c[nH]cn1)C(=O)N[C@@H](Cc1c[nH]cn1)C(=O)N[C@@H](Cc1c[nH]cn1)C(=O)N[C@@H](Cc1c[nH]cn1)C(=O)N[C@@H](Cc1c[nH]cn1)C(=O)N[C@@H](Cc1c[nH]cn1)C(=O)N[C@@H](CCCNC(=N)N)C(=O)N[C@@H](CC(=O)O)C(=O)N[C@@H](Cc1ccc(O)cc1)C(=O)N[C@@H](CCCCN)C(=O)N[C@@H](CC(=O)O)C(=O)N[C@@H](CC(=O)O)C(=O)N[C@@H](CC(=O)O)C(=O)N[C@@H](CC(=O)O)C(=O)N[C@@H](CCCCN)C(=O)O (stereo partly drawn) [Clone 10V8, XVLPTIISTNVNPFRXLSIPTYTYLXPITWGEI]	–	94 ± 2.0%	4.6 ± 0.34 nM
XIRXRTPTSRLXSTXRGXTXNXTSXITPRNDXI [Clone 7V8]	–	108 ± 12%	–

— patent US11345912B2, “Directed evolution of multivalent glycopeptides that tightly bind to target proteins” (Brandeis University, priority 2013, dated 2022)
